Test results as given in US20220249479A1, “MODIFIED RELEASE FORMULATION OF A PYRIMIDINYLAMINO-PYRAZOLE COMPOUND, AND METHODS OF TREATMENT” (DENALI THERAPEUTICS INC., priority 2019, published 2022).

Test: Multiple-dose PK of API-in-capsule formulation BID for 10 days in healthy human subjects
Format: in vivo
Experimental: The mean CSF to unbound plasma ratio was about 1.0. Data shown is from 25, 80, and100 mg BID multiple dose cohorts.
Formula I compound was administered to healthy young human subjects as an API-in- capsule formulation at doses of 25 mg, 40 mg, 80 mg and 100 mg BID, and to healthy elder subjects at 80 mg BID. Formula I compound concentrations were determined on Day 1 and 10 and at trough on selected day during the 10 days of administration. […] The terminal half-life, and plasma concentrations and pS935 inhibition at trough (minima) are consistent with twice-daily administration as an efficacious regimen.
[…] variability in the ratio was seen because of the parallel (non-crossover) nature of the study design. […] Physiologically-based PK modelling, was used to predict the Cmax/Cmin ratio for MUPS formulations contain various amounts of KOLLICOAT® polymer.

- plasma Cmax and AUC versus dose (25 to 100 mg BID dose range): dose-proportional
- Kp at 10 day (human, CSF / unbound plasma, oral, healthy young and healthy elderly, Day 10, 25, 80 and 100 mg BID immediate release capsule, read-out: mean CSF to unbound plasma ratio): ~1
- half-life (human, plasma, oral, postdose Day 10, 25-100 mg BID, read-out: terminal half-life in plasma): 14 to 26 h
Structure (SMILES): CNc1nc(Nc2cn(C(C)(C)C#N)nc2C)ncc1C(F)(F)F [Formula I compound, 2-methyl-2-(3-methyl-4-(4-(methylamino)-5-(trifluoromethyl)pyrimidin-2-ylamino)-1H-pyrazol-1-yl)propanenitrile]
